Results taken from paper PMC10010340, “The Wnt Pathway Inhibitor RXC004 Blocks Tumor Growth and Reverses Immune Evasion in Wnt Ligand–dependent Cancer Models” (Cancer Research Communications, 2022).
Where two headings read alike, the source gives them in different places.

Legend:
Hepatocyte stability [1] = type: in vitro ADME, rat (Sprague Dawley); conditions: Rat, 1 μmol/L
Method: (§1) Metabolic stability: liver microsomes and hepatocytes from human, mouse (CD1), rat (Sprague Dawley) and dog (Beagle) were obtained from Invitrogen. RXC004 (1 μmol/L) was incubated at 37°C with microsomes (0.5 mg · mL^−1) or hepatocytes (0.5 × 10^6 cells · mL^−1). Aliquots were removed at 0–45 minutes and RXC004 concentrations determined by LC/MS-MS analysis. Half-life (T1/2) and intrinsic clearance (CLint) were calculated as described in ref. [18].

HPAF-II xenograft = test: In vivo 18FDG-PET biodistribution; set-up: species or system mouse (NOD-SCID); conditions: 5 mg/kg once daily, 7-day dosing
Method: (§2) Experiment was performed at Medicines Discovery Catapult. SNU-1411 (1 × 10^7 cells; NOD-SCID mice) or HPAF-II (1 × 10^7 cells; NOD-SCID mice) were implanted subcutaneously and treatment with RXC004 (5 mg/kg once daily) or vehicle commenced when tumors reached approximately 200 mm^3. Mice were imaged prior to dosing, day 3 and day 7 after dosing. A 10 MBq injection of ^18FDG (PETNET), with a 45-minute washout was followed by a 20-minute PET scan using a Siemens Inveon PET scanner. Tissues removed on day 7 for biodistribution analysis were assessed using a PerkinElmer Wallac Wizard Gamma counter.

SNU-1411 xenograft [2] = test: SNU-1411 tumor reimplantation study; type: in vivo, mouse (NOD-SCID); conditions: prior treatment 5 mg/kg once daily, 9 days; versus vehicle pretreated
Method: The reimplantation study was performed at Sygnature Discovery. SNU-1411–implanted NOD-SCID mice were dosed orally with RXC004 (5 mg/kg, once daily) once tumors reached an average size of 350 mm^3. After 9 days treatment, tumors were resected and equivalent viable tumor fragments from each tumor were reimplanted into separate naïve NOD-SCID mice, tumor volume was assessed at various subsequent timepoints.

In vivo pharmacokinetics [3] = conditions: beagle, dog
Method: (§3) In vivo pharmacokinetics: RXC004 was dosed to male Sprague Dawley rats, male CD1 mice or dog (beagle) by intravenous and oral routes. Bioanalysis of blood and plasma samples was performed by LC/MS-MS using a Waters TQS or TQMS mass spectrometer. Pharmacokinetic information was derived using WinNonlin software (Certara).

SNU-1411 xenograft [4] = test: In vivo 18FDG-PET; set-up: species or system mouse (NOD-SCID); conditions: SNU-1411, 5 mg/kg once daily
Method: as §2

In vivo pharmacokinetics [5] = test: In vivo pharmacokinetics; set-up: species or system rat (male Sprague Dawley); conditions: rat
Method: as §3

HPAF-II cells = test: Cell-cycle analysis, phospho-Ser10 histone H3 flow cytometry; type: cell-based, human; conditions: 100 nmol/L, representative plot (DMSO 2.03%)
Method: For concentration–response effects on gene expression, Single-Shot Cell Lysis kit (Bio-Rad #172-5080) was used for RNA extraction, data were normalized to DMSO-treated controls, and IC50 values determined. For cell-cycle analysis, the cancer cell line panel was treated with RXC004 (100 nmol/L) or DMSO (0.1%) for 3 days. Cell-cycle profiles were determined by staining with propidium iodide (Thermo Fisher Scientific #P3566) and phospho-Ser10-Histone-H3 (AlexaFluor-647, BioLegend #650806), and quantified using an Agilent Novocyte-3000 flow cytometer. For in vitro growth curve analysis, HPAF-II and SNU-1411 cells were seeded in 96-well plates at 2,000 cells/well and imaged on the IncuCyte (Sartorius) at 10× magnification with 4 fields of view per well. Total cell object count over time was calculated using the Adherent Cell-by-Cell analysis module.

B16F10 tumors = test: B16F10/C57BL/6 syngeneic model; type: in vivo, mouse (C57BL/6)
Method: B16F10/C57BL/6 syngeneic model was performed at Axis Bioservices. Mouse B16F10 cells (2 × 10^5) were subcutaneously implanted in flanks of the immunocompetent male C57BL/6 mice. Treatment was initiated at day 3, once tumors were palpable with RXC004 being dosed orally as indicated. Anti-programmed cell death protein-1 (PD-1; RMP1-14, BioXcell) or isotype control was dosed at 100 μg per dose intraperitoneal, twice weekly. Anti-CTLA-4 antibody (BioXCell BP0131) or isotype control was dosed intraperitoneally every 3 days at 100 μg per dose. Separate experiments were performed for tumor volume and flow cytometry analysis. Tumor volume was assessed in each animal and/or group until prespecified termination conditions and/or study endpoint were reached. For flow cytometry, tumors were resected at day 19, 2 hours after final dose, weighed and digested into a single-cell suspension using collagenase (Liberase, Roche) and DNAase and passed through a strainer prior to flow cytometry analysis on FACS Canto II apparatus using Flow JO software. Single and fluorescence minus one stains were used for compensation setup and gating controls respectively. A myeloid analysis panel included Zombie viability dye (BioLegend #423106), CD11b (BioLegend #101228), CD45, Ly6C, and Ly6G (BD Biosciences #563891, #562727, #551460). Myeloid myeloid-derived suppressor cells (MDSC) were gated as CD45^+CD11b^+ Ly6G-Ly6C^high and polymorphonuclear MDSCs were gated as CD45^+CD11b^+ Ly6G^+Ly6C^med ([21]). For gene expression analysis, tumors were snap frozen, total RNA was extracted and mRNA expression levels for various genes analyzed using the Nanostring nCounter Mouse PanCancer IO360 Codeset.

In vivo pharmacokinetics [6] = test: In vivo pharmacokinetics; set-up: species or system mouse (male CD1); conditions: mouse
Method: as §3

Hepatocyte stability [7] = type: in vitro ADME, mouse (CD1); conditions: Mouse, 1 μmol/L
Method: as §1

[8] = male, Sprague Dawley, in vivo, po, 5 mg/kg p.o.
[9] = male, CD1, in vivo, po, 5 mg/kg p.o.

SMILES: Cc1c(-c2ccnc(C(F)(F)F)c2)ncn1CC(=O)Nc1ccc(-c2cnccn2)cn1 [RXC004, 2-[5-methyl-4-[2-(trifluoromethyl)-4-pyridyl]imidazol-1-yl]-N-(5-pyrazin-2-yl-2-pyridyl)acetamide]
- Hepatocyte stability: CLint (Hepatocyte stability [1]): 5.3 μL minute^−^1 · 10^6 cells^−^1
- 18FDG tumor:blood ratios (HPAF-II xenograft): significant decrease in tumor:blood ratios
- tumor growth after reimplantation into naïve untreated mice (SNU-1411 xenograft [2]): prolonged impact on tumor growth
- half-life (In vivo pharmacokinetics [3]; dose i.v./p.o. 2/5 mg/kg, read-out: T½ (converted)): 0.8 h
- clearance (In vivo pharmacokinetics [3]; intravenous, 2 mg/kg, dose i.v./p.o. 2/5 mg/kg): 8.9 mL/min/kg
- Vd (In vivo pharmacokinetics [3]; intravenous, 2 mg/kg, dose i.v./p.o. 2/5 mg/kg, read-out: Vss): 0.39 L/kg
- AUC(0-inf) (In vivo pharmacokinetics [3]; po, 5 mg/kg p.o.): 8.6 µM·h
- Cmax (In vivo pharmacokinetics [3]; po, 5 mg/kg p.o.): 10400 nM
- concentration at 24 h (In vivo pharmacokinetics [3]; po, 5 mg/kg p.o., read-out: C24h (p.o.)): 12 nM
- 18FDG tumor:blood ratios (SNU-1411 xenograft [4]; 7-day dosing): significant decrease in tumor:blood ratios
- decrease in maximum standardized uptake value (18FDG-PET) (SNU-1411 xenograft [4]; day 7, versus vehicle): 31%
- clearance (In vivo pharmacokinetics [5]; male, Sprague Dawley, in vivo, intravenous, 2 mg/kg, dose i.v./p.o. 2/5 mg/kg): 5.8 mL/min/kg
- Vd (In vivo pharmacokinetics [5]; male, Sprague Dawley, in vivo, intravenous, 2 mg/kg, dose i.v./p.o. 2/5 mg/kg, read-out: Vss): 0.64 L/kg
- AUC(0-inf) (In vivo pharmacokinetics [5]; [8]): 10.5 µM·h
- Cmax (In vivo pharmacokinetics [5]; [8]): 3600 nM
- concentration at 24 h (In vivo pharmacokinetics [5]; male, Sprague Dawley, in vivo, po, 5 mg/kg p.o., read-out: C24h (p.o.)): 9 nM
- half-life (In vivo pharmacokinetics [5]; male, Sprague Dawley, in vivo, dose i.v./p.o. 2/5 mg/kg, read-out: T½ (converted)): 2.5 h
- F (p.o.) (In vivo pharmacokinetics [5]; dose i.v./p.o. 2/5 mg/kg): 31%
- pH3+ (percentage phospho-Ser10 histone H3 positive cells) (HPAF-II cells): 0.28%
- survival hazard ratio (B16F10 tumors; 5 mg/kg QD versus vehicle, P <0.0001, Log-rank test): 0.27
- survival (B16F10 tumors; 5 mg/kg once daily): significantly increased survival
- tumor expression of CXCL9 (B16F10 tumors; 5 mg/kg once daily): increased tumor expression of the chemokine CXCL9
- tumor-associated CD45+ immune cells (Nanostring) (B16F10 tumors; 5 mg/kg once daily): significantly increased the overall tumor-associated CD45^+ immune cells
- circulating MDSC (B16F10 tumors; 5 mg/kg once daily, day 19): concomitant increase in circulating MDSC
- tumor-associated MDSCs (B16F10 tumors; 5 mg/kg once daily, day 19): significantly reduced tumor-associated MDSCs
- tumor volume / tumor growth (B16F10 tumors; RXC004 5 mg/kg once daily, anti-PD-1 100 μg per dose twice a week): significant tumor growth inhibition
- clearance (In vivo pharmacokinetics [6]; male, CD1, in vivo, intravenous, 2 mg/kg, dose i.v./p.o. 2/5 mg/kg): 2.9 mL/min/kg
- Vd (In vivo pharmacokinetics [6]; male, CD1, in vivo, intravenous, 2 mg/kg, dose i.v./p.o. 2/5 mg/kg, read-out: Vss): 0.4 L/kg
- AUC(0-inf) (In vivo pharmacokinetics [6]; [9]): 33.9 µM·h
- Cmax (In vivo pharmacokinetics [6]; [9]): 7600 nM
- concentration at 24 h (In vivo pharmacokinetics [6]; male, CD1, in vivo, po, 5 mg/kg p.o., read-out: C24h (p.o.)): 2 nM
- half-life (In vivo pharmacokinetics [6]; male, CD1, in vivo, dose i.v./p.o. 2/5 mg/kg, read-out: T½ (converted)): 1.8 h
- F (p.o.) (In vivo pharmacokinetics [6]; dose i.v./p.o. 2/5 mg/kg): 48%
- Hepatocyte stability: CLint (Hepatocyte stability [7]): <3.0 μL minute^−^1 · 10^6 cells^−^1
